Columns and labels:
Assay type in all cases: in vivo
[1] = tested on: Puccinia striiformis (PUCCST); assay: Field assessment of Compound I and penthiopyrad on yellow rust of wheat (AUDPC % control); details: AUDPC-based, 2 field trials
Excerpt: (§1) Treatments consisting of the compound of Formula I and fungicide compound penthiopyrad were applied either using individually or as a two-way mixture of penthiopyrad with the compound of Formula I. The compound of Formula I was applied with Agnique BP-420 (50% w/w at 0.3% v/v) at 75 and 150 g ai/ha and Penthiopyrad (Vertisan) was applied at 125 and 200 g ai/ha. Commercial standards used in the studies were Fluxapyroxad (Imtrex), applied at 100 g ai/ha, and Metconazole+Fluxapyroxad (Librax), applied at 161 g ai/ha.
Fungicidal treatments containing the compound of Formula I and penthiopyrad, either individually or as a two-way mixture, were assessed against yellow rust of wheat (PUCCST) in two separate field trials. In the first trial, fungicidal treatments were applied twice at B31-32 (early curative, 2% infection at application on L3) and B37-39 (0% infection at application on L) growth stages of winter wheat (TRZAW, Fairplay variety). The treatments were part of an experimental trial designed as a randomized complete block with four replications and a plot of approximately 1×6 m. Treatments were applied at water volume of 200 L/ha, using a backpack plot sprayer (BKPCKENG, F110-015 Hardi (3) Flat fan nozzle) and pressurized at 200 kPa.
In the second trial, fungicidal treatments containing the compound of Formula I and penthiopyrad, either individually or as a two-way mixture, were applied twice at B31-32 (early curative, 5% infection on L5 at application) and B37-39 (early curative, 5% infection on L1 and L2 at application) growth stages of wheat (TRZAW, Torch variety). The treatment was part of an experimental trial designed as a randomized complete block with four replications and a plot of approximately 2×3 m. Treatments were applied at water volume of 200 L/ha, using a backpack precision plot sprayer (BKCKAIR, F110-03 Hypro (4) Flat fan nozzle) and pressurized at 300 kPa.
(§2) Disease severity (percentage of visual diseased foliage on whole plot or leaves) in both field trials was recorded following EPPO PP1/26 guideline prescriptions. Area under the disease progress curve (AUDPC) was calculated for each plot in both trials using the sets of recorded severity data. Relative AUDPC (% control based on AUDPC) was calculated as percent of the nontreated control. Final results for the control of yellow rust of wheat by the compound of Formula I, penthiopyrad and mixtures are reported as an average of the relative AUDPC calculated over all […] field trials. Statistical analysis was done according to ANOVA and Tukey's test (p=0.10).

[2] = tested on: Zymoseptoria tritici (SEPTTR); assay: Field assessment of Compound I and penthiopyrad on leaf blotch of wheat (AUDPC % control); details: AUDPC-based, 3 field trials
Excerpt: as §1
Fungicidal treatments containing the compound of Formula I and penthiopyrad, either individually or as a two-way mixture, were assessed against leaf spot of wheat (SEPTTR) in three separate field trials. In the first trial, fungicidal treatments were applied at B33 (3% infection at application on L3) growth stage of winter wheat (TRZAW, Dinosor variety). The treatments were part of an experimental trial designed as a randomized complete block with four replications and a plot of approximately 1×6 m. Treatments were applied at water volume of 200 L/ha, using a backpack plot sprayer (BKPCKENG, FLATFANA nozzle) and pressurized at 200 kPa.
In the second trial, fungicidal treatments were applied twice at B32 (curative, 25% infection at application on L5) and B37-39 (5% infection at application on L3) growth stages of winter wheat (TRZAW, Consort variety). The treatments were part of an experimental trial designed as a randomized complete block with four replications and a plot of approximately 1×2 m. Treatments were applied at water volume of 200 L/ha, using a backpack plot sprayer (BKPCKAIR, Flat fan nozzle) and pressurized at 210 kPa.
In the final trial, fungicidal treatments were applied twice at B32 (protective, 15% infection at application on L6) and B37-39 (12% infection at application on L5) growth stages of winter wheat (TRZAW, Smaragd variety). The treatments were part of an experimental trial designed as a randomized complete block with four replications and a plot of approximately 2×3 m. Treatments were applied at water volume of 200 L/ha, using a backpack plot sprayer (BICYCAIR, FLATFANA nozzle) and pressurized at 220 kPa.
as §2, with “leaf spot” for “yellow rust”, “Statistical analysis was done according to ANOVA and Tukey's test (p=0.10).” left out

[3] = tested on: Puccinia triticina (PUCCRT); assay: Field assessment of Compound I and penthiopyrad on brown rust of wheat (AUDPC % control); details: AUDPC-based, 2 field trials
Excerpt: as §1
Fungicidal treatments containing the compound of Formula I and penthiopyrad, either individually or as a two-way mixture, were assessed against brown rust of wheat (PUCCRT) in two separate field trials. In the first trial, fungicidal treatments were applied at B37-39 (protectant, approximately 0% infection at application) growth stages of wheat (TRZAW, MV Vanek variety) under natural infection of brown rust. The treatment was part of an experimental trial designed as a randomized complete block with four replications and a plot of approximately 2×3 m. Fungicidal treatments were applied at a water volume of 200 L/ha, using a backpack plot sprayer with a TEEJET QJ90-2XTT110 015 Nozzle.
In the second trial, fungicidal treatments containing the compound of Formula I and penthiopyrad, either individually or as a two-way mixture, were applied at B33 (curative, approximately 6.6% infection at application) growth stage of wheat (TRZAW, Miradoux variety) under natural infection of brown rust. The treatments were part of an experimental trial designed as a randomized complete block with four replications and a plot of approximately 2×3 m. Fungicidal treatments were applied at a water volume of 200 L/ha, using a backpack plot sprayer with a HARDI MD 110-02 Nozzle.
as §2, with “brown” for “yellow”

CC(C)CC(C)c1sccc1NC(=O)c1cn(C)nc1C(F)(F)F (stereo not drawn) [Penthiopyrad, N-[2-(1,3-dimethylbutyl)-3-thienyl]-1-methyl-3-(trifluoromethyl)-1H-pyrazole-4-carboxamide]
PUCCST % Control ([1]; rate 125 g ai/ha): 39.6% | PUCCST % Control ([1]; rate 200 g ai/ha): 46.5% | SEPTTR % Control ([2]; rate 125 g ai/ha): 42.3% | SEPTTR % Control ([2]; rate 200 g ai/ha): 51.4% | PUCCRT % Control ([3]; rate 125 g ai/ha): 84.2% | PUCCRT % Control ([3]; rate 200 g ai/ha): 85.1%

Source: patent publication US20190297888A1, “FUNGICIDAL COMPOUNDS AND MIXTURES FOR FUNGAL CONTROL IN CEREALS” (Dow AgroSciences LLC, priority 2016, published 2019)
